The values below come from patent US20240270762A1, “PENICILLIN-BINDING PROTEIN INHIBITORS” (priority 2021, published 2024).

Assay [1] relates to P. aeruginosa CDC-0054. In words: microbe, parasite or virus in culture. It counts as cell-based. The note with it: Pseudomonas aeruginosa, CDC0054, read-out: Minimum inhibitory concentration, P. aeruginosa CDC-0054.
The target of assay [2] is T1, PBP3 from Pseudomonas aeruginosa (PAO1) (Pseudomonas aeruginosa, UniProt G3XD46).
T1 construct: made in house
T1 sequence (G3XD46 whole entry): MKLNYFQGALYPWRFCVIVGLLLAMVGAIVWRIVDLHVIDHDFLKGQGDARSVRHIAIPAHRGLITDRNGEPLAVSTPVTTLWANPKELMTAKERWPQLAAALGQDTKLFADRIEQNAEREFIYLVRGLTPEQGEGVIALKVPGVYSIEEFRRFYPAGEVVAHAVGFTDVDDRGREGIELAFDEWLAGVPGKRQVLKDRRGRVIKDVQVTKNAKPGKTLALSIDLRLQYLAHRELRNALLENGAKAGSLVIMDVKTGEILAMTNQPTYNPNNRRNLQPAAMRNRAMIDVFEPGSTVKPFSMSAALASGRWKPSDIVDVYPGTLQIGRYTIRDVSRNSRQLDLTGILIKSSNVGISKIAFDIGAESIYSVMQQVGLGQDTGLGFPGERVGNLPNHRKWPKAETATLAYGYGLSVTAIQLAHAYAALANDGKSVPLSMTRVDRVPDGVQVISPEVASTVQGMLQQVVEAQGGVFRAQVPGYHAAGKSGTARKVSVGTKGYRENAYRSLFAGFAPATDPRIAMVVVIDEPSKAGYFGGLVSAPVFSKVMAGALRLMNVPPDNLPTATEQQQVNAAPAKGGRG
In words: Bocillin-FL fluorescence polarization competition binding, P. aeruginosa PBP3. The note with it: Binding affinity to P. aeruginosa PBP3; fluorescence polarization competition binding assay using Bocillin-FL; read-out: P. aeruginosa PBP3 Potency. The essentials:
(§1)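 Purified PBP was preincubated with inhibitor (E. coli PBP3 1.5 μM, 30 min; P. aeruginosa PBP3 0.75 μM, A. baumannii PBP3 0.2 μM and PBP1a 1 μM, 15 min), then Bocillin-FL (0.1 μM; 0.05 μM for PBP1a) added and FP read up to 60 min. EC50 = 50% loss of bound probe.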
A general note: Polarisation of emitted light reports the rotation of a fluorescent probe.

For assay [3], the target named is T2, PBP3 from Escherichia coli (K-12) (Escherichia coli, UniProt P0AD68).
T2 construct: made in house
T2 sequence (P0AD68 1-577): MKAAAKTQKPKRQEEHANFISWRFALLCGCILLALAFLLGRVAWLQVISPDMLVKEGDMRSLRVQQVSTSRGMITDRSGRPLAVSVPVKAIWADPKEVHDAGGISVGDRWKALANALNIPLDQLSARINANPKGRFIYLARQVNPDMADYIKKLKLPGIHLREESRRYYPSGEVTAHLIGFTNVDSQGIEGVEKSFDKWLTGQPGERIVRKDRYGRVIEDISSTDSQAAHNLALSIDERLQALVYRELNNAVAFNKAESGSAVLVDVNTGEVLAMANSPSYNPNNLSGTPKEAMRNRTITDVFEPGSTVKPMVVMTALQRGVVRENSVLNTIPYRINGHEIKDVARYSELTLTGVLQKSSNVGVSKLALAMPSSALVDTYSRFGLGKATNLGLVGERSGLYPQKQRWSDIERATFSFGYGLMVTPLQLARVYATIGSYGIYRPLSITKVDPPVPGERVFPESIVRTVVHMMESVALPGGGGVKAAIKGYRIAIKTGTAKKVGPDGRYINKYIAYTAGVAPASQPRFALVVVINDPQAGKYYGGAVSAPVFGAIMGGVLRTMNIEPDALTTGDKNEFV
In words: Bocillin-FL fluorescence polarization competition binding, E. coli PBP3. The essentials:
as §1

In assay [4] the test system is P. aeruginosa CDC-0090. In words: microbe, parasite or virus in culture. The note with it: Pseudomonas aeruginosa, CDC0090, read-out: Minimum inhibitory concentration, P. aeruginosa CDC-0090. The format is cell-based.
The test system of assay [5] is A. baumannii ATCC 17978. In words: microbe, parasite or virus in culture. The note with it: Acinetobacter baumannii, ATCC17978, read-out: MIC, A. baumannii ATCC 17978. The format is cell-based.
Assay [6] relates to A. baumannii 1258916. In words: microbe, parasite or virus in culture. It counts as cell-based, Acinetobacter baumannii. The note with it: Acinetobacter baumannii, 1258916, read-out: MIC, A. baumannii 1258916.
The target of assay [7] is T3, PBP3 from Acinetobacter baumannii (ATCC 19606) (Acinetobacter baumannii, UniProt A0ABX6CK25).
T3 sequence (A0ABX6CK25 64-610): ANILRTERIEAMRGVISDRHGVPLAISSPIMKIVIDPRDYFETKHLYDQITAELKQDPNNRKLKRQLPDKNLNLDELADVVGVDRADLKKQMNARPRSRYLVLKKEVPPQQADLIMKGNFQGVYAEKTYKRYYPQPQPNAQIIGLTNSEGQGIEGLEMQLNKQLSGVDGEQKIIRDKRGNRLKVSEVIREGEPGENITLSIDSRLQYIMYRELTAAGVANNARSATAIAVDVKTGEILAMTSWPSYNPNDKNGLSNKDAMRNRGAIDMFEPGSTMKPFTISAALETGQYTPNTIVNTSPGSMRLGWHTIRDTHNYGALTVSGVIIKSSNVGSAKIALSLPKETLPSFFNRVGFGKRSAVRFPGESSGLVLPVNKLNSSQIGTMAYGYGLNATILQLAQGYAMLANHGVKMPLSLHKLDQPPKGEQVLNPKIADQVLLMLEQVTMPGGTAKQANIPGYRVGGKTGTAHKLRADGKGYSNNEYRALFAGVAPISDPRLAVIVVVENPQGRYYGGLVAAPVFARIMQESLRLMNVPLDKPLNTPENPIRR
In words: Bocillin-FL fluorescence polarization competition binding, A. baumannii PBP3. The note with it: fluorescence polarization competition binding assay using Bocillin-FL; read-out: A. baumannii PBP3 Potency. The essentials:
as §1

For assay [8], the system named is B. thailandensis ATCC 700388. In words: microbe, parasite or virus in culture. The note with it: Burkholderia thailandensis, ATCC700388, read-out: Minimum inhibitory concentration (MIC), B. thailandensis ATCC 700388. The format is cell-based.
For assay [9], the system named is P. aeruginosa (ΔmexAB-oprM). In words: Broth microdilution MIC in iron-depleted CAMHB (IDM). It counts as cell-based. The note with it: Pseudomonas aeruginosa; iron-depleted CAMHB (IDM); […]; read-out: Minimum inhibitory concentration, P. aeruginosa ΔmexAB-oprM. Background: Dilution methods test growth across graded concentrations, often in twofold steps.
For assay [10], the system named is A. baumannii CDC-0083. In words: microbe, parasite or virus in culture. The note with it: Acinetobacter baumannii, CDC0083, read-out: MIC, A. baumannii CDC-0083. It counts as cell-based.
The subject of assay [11] is A. baumannii CDC-0045. In words: microbe, parasite or virus in culture. It counts as cell-based. The note with it: Acinetobacter baumannii, CDC0045, read-out: MIC, A. baumannii CDC-0045.

pEC50, pIC50: −log10 of the molar value. In brackets after ≈: the same amount, converted by molar mass.

On to `O=C(NCCCN1CCN(C(=O)NC(C(=O)N[C@H]2Cc3ccc(F)c(C(=O)O)c3OB2O)c2cc(F)c(O)c(O)c2Cl)C(=O)C1=O)c1ccc(O)c(Cl)c1F` (stereo partly drawn) [Example 419, (3R)-3-(2-(4-(3-(3-chloro-2-fluoro-4-hydroxybenzamido)propyl)-2,3-dioxopiperazine-1-carboxamido)-2-(2-chloro-5-fluoro-3,4-dihydroxyphenyl)acetamido)-7-fluoro-2-hydroxy-3,4-dihydro-2H-benzo[e][1,2]oxaborinine-8-carboxylic acid], for which the MIC in assay [1] is 2 to 4 µg/mL (≈ 2.46 to 4.92 µM); in assay [4], 2 to 4 µg/mL (≈ 2.46 to 4.92 µM); in [5], < 1 µg/mL; in assay [6], 2 to 4 µg/mL (≈ 2.46 to 4.92 µM); in assay [8], 2 to 4 µg/mL (≈ 2.46 to 4.92 µM); in [9] it was < 1 µg/mL. Moreover, the MIC is > 128 µg/mL in assay [10] and 2 to 4 µg/mL (≈ 2.46 to 4.92 µM) in assay [11]. The pIC50 in [2] and in assay [7] was > 5.00 in each case. In addition, the pEC50 in assay [3] is > 5.00.
As for `O=C(NCCCN1CCN(C(=O)NC(C(=O)N[C@H]2Cc3ccc(F)c(C(=O)O)c3OB2O)c2cc(F)c(O)c(O)c2Cl)C(=O)C1=O)c1c(F)cc(O)cc1Cl` (stereo partly drawn) [Example 421, (3R)-3-(2-(2-chloro-5-fluoro-3,4-dihydroxyphenyl)-2-(4-(3-(2-chloro-6-fluoro-4-hydroxybenzamido)propyl)-2,3-dioxopiperazine-1-carboxamido)acetamido)-7-fluoro-2-hydroxy-3,4-dihydro-2H-benzo[e][1,2]oxaborinine-8-carboxylic acid], the MIC in assay [1] was < 1 µg/mL; in [4], < 1 µg/mL; in assay [5], < 1 µg/mL; in [6], 2 to 4 µg/mL (≈ 2.46 to 4.92 µM); in [8], 2 to 4 µg/mL (≈ 2.46 to 4.92 µM); in assay [9] it was < 1 µg/mL. The MIC was > 128 µg/mL in [10] and < 1 µg/mL in assay [11]. Moreover, the pIC50 in assay [2] and in assay [7] was > 5.00 throughout. Also, in assay [3], the pEC50 was > 5.00.
For the compound `O=C(NCCCN1CCN(C(=O)N[C@@H](C(=O)N[C@H]2Cc3ccc(F)c(C(=O)O)c3OB2O)c2cc(F)c(O)c(O)c2Cl)C(=O)C1=O)c1cc(F)c(O)c(F)c1` [Example 422, (R)-3-((R)-2-(2-chloro-5-fluoro-3,4-dihydroxyphenyl)-2-(4-(3-(3,5-difluoro-4-hydroxybenzamido)propyl)-2,3-dioxopiperazine-1-carboxamido)acetamido)-7-fluoro-2-hydroxy-3,4-dihydro-2H-benzo[e][1,2]oxaborinine-8-carboxylic acid], the MIC is < 1 µg/mL in assay [1]; 2 to 4 µg/mL (≈ 2.51 to 5.03 µM) in assay [4]; < 1 µg/mL in [5]; < 1 µg/mL in [6]; < 1 µg/mL in assay [8]; < 1 µg/mL in [9]. The results for the MIC in assay [10] and in assay [11] were > 128 µg/mL and < 1 µg/mL, respectively. The pIC50 in assay [2] and in assay [7] was > 5.00 throughout. In assay [3], the pEC50 is > 5.00.
For the compound `O=C(NCCCN1CCN(C(=O)NC(C(=O)N[C@H]2Cc3ccc(F)c(C(=O)O)c3OB2O)c2cc(F)c(O)c(O)c2Cl)C(=O)C1=O)c1cc(O)cc(O)c1` (stereo partly drawn) [Example 423, (3R)-3-(2-(2-chloro-5-fluoro-3,4-dihydroxyphenyl)-2-(4-(3-(3,5-dihydroxybenzamido)propyl)-2,3-dioxopiperazine-1-carboxamido)acetamido)-7-fluoro-2-hydroxy-3,4-dihydro-2H-benzo[e][1,2]oxaborinine-8-carboxylic acid], the MIC in assay [1], in assay [4], in assay [5], in [6], in assay [8] and in [9] was < 1 µg/mL in each case. In addition, the values for the MIC in assay [10] and in assay [11] were > 128 µg/mL and < 1 µg/mL, respectively. For the same compound, the pIC50 in [2] and in assay [7] was > 5.00 each time. Also, the pEC50 in assay [3] was > 5.00.
For `O=C(O)c1c(F)ccc2c1OB(O)[C@@H](NC(=O)C(NC(=O)N1CCN(C3CCN(C(=O)Nc4cccc(O)c4)CC3)C(=O)C1=O)c1cc(F)c(O)c(O)c1Cl)C2` (stereo partly drawn) [Example 424, (3R)-3-(2-(2-chloro-5-fluoro-3,4-dihydroxyphenyl)-2-(4-(1-((3-hydroxyphenyl)carbamoyl)piperidin-4-yl)-2,3-dioxopiperazine-1-carboxamido)acetamido)-7-fluoro-2-hydroxy-3,4-dihydro-2H-benzo[e][1,2]oxaborinine-8-carboxylic acid], the MIC in assay [1], in [4], in assay [5], in assay [6], in [8] and in assay [9] was < 1 µg/mL each time. In addition, the MIC in assay [10] was 2 to 4 µg/mL (≈ 2.5 to 4.99 µM); in assay [11], < 1 µg/mL. Further, the pIC50 in assay [2] and in [7] was > 5.00 each time. For the same compound, the pEC50 in [3] was > 5.00.
For `O=C(O)c1c(F)ccc2c1OB(O)[C@@H](NC(=O)C(NC(=O)N1CCN(C3CCN(C(=O)c4cncc(O)c4)CC3)C(=O)C1=O)c1cc(F)c(O)c(O)c1Cl)C2` (stereo partly drawn) [Example 425, (3R)-3-(2-(2-chloro-5-fluoro-3,4-dihydroxyphenyl)-2-(4-(1-(5-hydroxynicotinoyl)piperidin-4-yl)-2,3-dioxopiperazine-1-carboxamido)acetamido)-7-fluoro-2-hydroxy-3,4-dihydro-2H-benzo[e][1,2]oxaborinine-8-carboxylic acid], the MIC in [1], in assay [4], in assay [5], in [6], in assay [8] and in assay [9] was < 1 µg/mL each time. The figures for the MIC in assay [10] and in assay [11] were 8 to 16 µg/mL (≈ 10.2 to 20.3 µM) and < 1 µg/mL, respectively. The pIC50 in [2] and in assay [7] was > 5.00 throughout. The pEC50 in [3] is > 5.00.
Take `O=C(O)c1c(F)ccc2c1OB(O)[C@@H](NC(=O)C(NC(=O)N1CCN(C3CCN(S(=O)(=O)c4cccc(O)c4)CC3)C(=O)C1=O)c1cc(F)c(O)c(O)c1Cl)C2` (stereo partly drawn) [Example 428, (3R)-3-(2-(2-chloro-5-fluoro-3,4-dihydroxyphenyl)-2-(4-(1-((3-hydroxyphenyl)sulfonyl)piperidin-4-yl)-2,3-dioxopiperazine-1-carboxamido)acetamido)-7-fluoro-2-hydroxy-3,4-dihydro-2H-benzo[e][1,2]oxaborinine-8-carboxylic acid]: the MIC in [1] was < 1 µg/mL; in assay [4], < 1 µg/mL; in [5] it was < 1 µg/mL; in assay [6], < 1 µg/mL; in [8] it was > 128 µg/mL; in assay [9], < 1 µg/mL. Besides, the MIC in [10] is 8 to 16 µg/mL (≈ 9.73 to 19.5 µM); in assay [11], < 1 µg/mL. Also, the pIC50 in assay [2] and in [7] was > 5.00 each time. In addition, the pEC50 in [3] is > 5.00.
As for `O=C(O)c1c(F)ccc2c1OB(O)[C@@H](NC(=O)C(NC(=O)N1CCN(C3CCN(S(=O)(=O)c4ccc(O)cc4)CC3)C(=O)C1=O)c1cc(F)c(O)c(O)c1Cl)C2` (stereo partly drawn) [Example 429, (3R)-3-(2-(2-chloro-5-fluoro-3,4-dihydroxyphenyl)-2-(4-(1-((4-hydroxyphenyl)sulfonyl)piperidin-4-yl)-2,3-dioxopiperazine-1-carboxamido)acetamido)-7-fluoro-2-hydroxy-3,4-dihydro-2H-benzo[e][1,2]oxaborinine-8-carboxylic acid], the MIC is < 1 µg/mL in assay [1]; < 1 µg/mL in assay [4]; < 1 µg/mL in assay [5]; < 1 µg/mL in [6]; 8 to 16 µg/mL (≈ 9.73 to 19.5 µM) in assay [8]; < 1 µg/mL in assay [9]. Further, the MIC in [10] is 8 to 16 µg/mL (≈ 9.73 to 19.5 µM); in assay [11], < 1 µg/mL. Also, the pIC50 in assay [2] and in [7] was > 5.00 throughout. Besides, the pEC50 in assay [3] was > 5.00.

In general, pEC50 refers to the negative decadic logarithm of the EC50, by convention in mol/L. Read a high pEC50 as a low EC50.
